Assay results: BindingDB's records for doi:10.1016/j.ejmech.2017.07.038 (Jain University, 2017)

Experiment: Antagonist activity at ER in human MCF7 cells assessed as inhibition of 17beta-estradiol-induced cell proliferation

Work on Oc1ccc2c(c1)C(c1ccc(OCCN3CCCCC3)cc1)c1c(sc3cc(O)ccc13)C2 (stereo unspecified) yielded an IC50 of 0.9 nM.
